Read-outs that look alike come from different tables or passages of the source.
Key:
[1] = tested on: highly resistant E.coli strains (producing a plasmid mediated β-lactamase); test: MIC of compound (i) alone and in combination with compound (iii), E. coli strains; type: cell-based; details: for MIC: Escherichia coli, compound (i) alone
[2] = tested on: Staphylococcus aureus Russell; test: MIC of compound (i) alone and in the presence of compound (iv), serial dilution in nutrient agar; type: cell-based
Experimental: (§1) Activities of the compound (i) against a number of pathogenic organisms alone, and in the presence of 1.0, 2.5, 5.0 and 10 µg/ml of compound (iv).

Klebsiella aerogenes A = test: as above; type: cell-based
Experimental: as §1

[3] = tested on: K-aerogenes strains producing both a plasmid-mediated and chromosomally mediated β-lactamase; test: MIC of compound (i) alone and in combination with compound (iii), K. aerogenes strains; type: cell-based, Klebsiella aerogenes; details: for MIC: Klebsiella aerogenes

CC1(C)S[C@@H]2[C@H](NC(=O)[C@H](NC(=O)Nc3cnc(Nc4ccc(S(N)(=O)=O)cc4)nc3O)c3ccc(O)cc3)C(=O)N2[C@H]1C(=O)O [compound (i)]
MIC ([1]; read-out: MIC µg/ml compound (i) alone, Geometric mean (± 95% confidence limits), geometric mean of 11 E. coli strains): > 160 µg/mL | MIC ([1]; read-out: MIC µg/ml compound (i) alone, strain E96): > 160 µg/mL | MIC ([1]; read-out: MIC µg/ml compound (i) alone, strain E110): > 160 µg/mL | MIC ([1]; read-out: MIC µg/ml compound (i) alone, strain E121): > 161 µg/mL | MIC ([1]; read-out: MIC µg/ml compound (i) alone, strain E124): > 160 µg/mL | MIC ([1]; read-out: MIC µg/ml compound (i) alone, strain JT4): > 160 µg/mL | MIC ([1]; read-out: MIC µg/ml compound (i) alone, strain JT9): > 160 µg/mL | MIC ([1]; read-out: MIC µg/ml compound (i) alone, strain JT39): 160 µg/mL | MIC ([1]; read-out: MIC µg/ml compound (i) alone, strain JT68): > 160 µg/mL | MIC ([1]; read-out: MIC µg/ml compound (i) alone, strain P9): > 160 µg/mL | MIC ([1]; read-out: MIC µg/ml compound (i) alone, strain P19): > 160 µg/mL | MIC ([1]; read-out: MIC µg/ml compound (i) alone, strain SA15): > 160 µg/mL | MIC µg/ml compound (i) compound (iii) (µg/ml) 1, Geometric mean (± 95% confidence limits) ([1]; geometric mean of 11 E. coli strains, with compound (iii) 1 µg/ml): 0.80 (0.16-4.1) µg/ml | MIC µg/ml compound (i) compound (iii) (µg/ml) 2, Geometric mean (± 95% confidence limits) ([1]; geometric mean of 11 E. coli strains, with compound (iii) 2 µg/ml): 0.59 (0.15-2.2) µg/ml | MIC µg/ml compound (i) compound (iii) (µg/ml) 5, Geometric mean (± 95% confidence limits) ([1]; geometric mean of 11 E. coli strains, with compound (iii) 5 µg/ml): 0.19 (0.07-0.53) µg/ml | MIC µg/ml compound (i) compound (iii) (µg/ml) 10, Geometric mean (± 95% confidence limits) ([1]; geometric mean of 11 E. coli strains, with compound (iii) 10 µg/ml): 0.08 (0.02-0.30) µg/ml | MIC µg/ml compound (i) compound (iii) (µg/ml) 1 ([1]; strain E96, with compound (iii) 1 µg/ml): 0.62 µg/mL | MIC µg/ml compound (i) compound (iii) (µg/ml) 2 ([1]; strain E96, with compound (iii) 2 µg/ml): 0.62 µg/mL | MIC µg/ml compound (i) compound (iii) (µg/ml) 5 ([1]; strain E96, with compound (iii) 5 µg/ml): 0.31 µg/mL | MIC µg/ml compound (i) compound (iii) (µg/ml) 10 ([1]; strain E96, with compound (iii) 10 µg/ml): 0.31 µg/mL | MIC µg/ml compound (i) compound (iii) (µg/ml) 1 ([1]; strain E110, with compound (iii) 1 µg/ml): 0.16 µg/mL | MIC µg/ml compound (i) compound (iii) (µg/ml) 2 ([1]; strain E110, with compound (iii) 2 µg/ml): 0.16 µg/mL | MIC µg/ml compound (i) compound (iii) (µg/ml) 5 ([1]; strain E110, with compound (iii) 5 µg/ml): 0.08 µg/mL | MIC µg/ml compound (i) compound (iii) (µg/ml) 10 ([1]; strain E110, with compound (iii) 10 µg/ml): 0.02 µg/mL | MIC µg/ml compound (i) compound (iii) (µg/ml) 1 ([1]; strain E121, with compound (iii) 1 µg/ml): 0.62 µg/mL | MIC µg/ml compound (i) compound (iii) (µg/ml) 2 ([1]; strain E121, with compound (iii) 2 µg/ml): 0.31 µg/mL | MIC µg/ml compound (i) compound (iii) (µg/ml) 5 ([1]; strain E121, with compound (iii) 5 µg/ml): 0.16 µg/mL | MIC µg/ml compound (i) compound (iii) (µg/ml) 10 ([1]; strain E121, with compound (iii) 10 µg/ml): 0.08 µg/mL | MIC µg/ml compound (i) compound (iii) (µg/ml) 1 ([1]; strain E124, with compound (iii) 1 µg/ml): 1.25 µg/mL | MIC µg/ml compound (i) compound (iii) (µg/ml) 2 ([1]; strain E124, with compound (iii) 2 µg/ml): 0.62 µg/mL | MIC µg/ml compound (i) compound (iii) (µg/ml) 5 ([1]; strain E124, with compound (iii) 5 µg/ml): 0.31 µg/mL | MIC µg/ml compound (i) compound (iii) (µg/ml) 10 ([1]; strain E124, with compound (iii) 10 µg/ml): 0.16 µg/mL | MIC µg/ml compound (i) compound (iii) (µg/ml) 1 ([1]; strain JT4, with compound (iii) 1 µg/ml): 40 µg/mL | MIC µg/ml compound (i) compound (iii) (µg/ml) 2 ([1]; strain JT4, with compound (iii) 2 µg/ml): 20 µg/mL | MIC µg/ml compound (i) compound (iii) (µg/ml) 5 ([1]; strain JT4, with compound (iii) 5 µg/ml): 2.5 µg/mL | MIC µg/ml compound (i) compound (iii) (µg/ml) 10 ([1]; strain JT4, with compound (iii) 10 µg/ml): 1.25 µg/mL | MIC µg/ml compound (i) compound (iii) (µg/ml) 1 ([1]; strain JT9, with compound (iii) 1 µg/ml): 1.25 µg/mL | MIC µg/ml compound (i) compound (iii) (µg/ml) 2 ([1]; strain JT9, with compound (iii) 2 µg/ml): 0.62 µg/mL | MIC µg/ml compound (i) compound (iii) (µg/ml) 5 ([1]; strain JT9, with compound (iii) 5 µg/ml): 0.08 µg/mL | MIC µg/ml compound (i) compound (iii) (µg/ml) 10 ([1]; strain JT9, with compound (iii) 10 µg/ml): 0.08 µg/mL | MIC µg/ml compound (i) compound (iii) (µg/ml) 1 ([1]; strain JT39, with compound (iii) 1 µg/ml): 0.16 µg/mL | MIC µg/ml compound (i) compound (iii) (µg/ml) 2 ([1]; strain JT39, with compound (iii) 2 µg/ml): 0.16 µg/mL | MIC µg/ml compound (i) compound (iii) (µg/ml) 5 ([1]; strain JT39, with compound (iii) 5 µg/ml): 0.08 µg/mL | MIC µg/ml compound (i) compound (iii) (µg/ml) 10 ([1]; strain JT39, with compound (iii) 10 µg/ml): 0.02 µg/mL | MIC µg/ml compound (i) compound (iii) (µg/ml) 1 ([1]; strain JT68, with compound (iii) 1 µg/ml): 0.16 µg/mL | MIC µg/ml compound (i) compound (iii) (µg/ml) 2 ([1]; strain JT68, with compound (iii) 2 µg/ml): 0.31 µg/mL | MIC µg/ml compound (i) compound (iii) (µg/ml) 5 ([1]; strain JT68, with compound (iii) 5 µg/ml): 0.16 µg/mL | MIC µg/ml compound (i) compound (iii) (µg/ml) 10 ([1]; strain JT68, with compound (iii) 10 µg/ml): 0.08 µg/mL | MIC µg/ml compound (i) compound (iii) (µg/ml) 1 ([1]; strain P9, with compound (iii) 1 µg/ml): 1.25 µg/mL | MIC µg/ml compound (i) compound (iii) (µg/ml) 2 ([1]; strain P9, with compound (iii) 2 µg/ml): 0.62 µg/mL | MIC µg/ml compound (i) compound (iii) (µg/ml) 5 ([1]; strain P9, with compound (iii) 5 µg/ml): 0.16 µg/mL | MIC µg/ml compound (i) compound (iii) (µg/ml) 10 ([1]; strain P9, with compound (iii) 10 µg/ml): 0.08 µg/mL | MIC µg/ml compound (i) compound (iii) (µg/ml) 1 ([1]; strain P19, with compound (iii) 1 µg/ml): 0.31 µg/mL | MIC µg/ml compound (i) compound (iii) (µg/ml) 2 ([1]; strain P19, with compound (iii) 2 µg/ml): 0.31 µg/mL | MIC µg/ml compound (i) compound (iii) (µg/ml) 5 ([1]; strain P19, with compound (iii) 5 µg/ml): 0.08 µg/mL | MIC µg/ml compound (i) compound (iii) (µg/ml) 10 ([1]; strain P19, with compound (iii) 10 µg/ml): 0.02 µg/mL | MIC µg/ml compound (i) compound (iii) (µg/ml) 1 ([1]; strain SA15, with compound (iii) 1 µg/ml): 2.5 µg/mL | MIC µg/ml compound (i) compound (iii) (µg/ml) 2 ([1]; strain SA15, with compound (iii) 2 µg/ml): 1.25 µg/mL | MIC µg/ml compound (i) compound (iii) (µg/ml) 5 ([1]; strain SA15, with compound (iii) 5 µg/ml): 0.31 µg/mL | MIC µg/ml compound (i) compound (iii) (µg/ml) 10 ([1]; strain SA15, with compound (iii) 10 µg/ml): 0.08 µg/mL | MIC (μg/ml) for compound (i) ([2]; compound (iv) 0 μg/ml (alone)): 50 µg/mL | MIC (μg/ml) for compound (i) ([2]; compound (iv) 1.0 μg/ml): 2.5 µg/mL | MIC (μg/ml) for compound (i) ([2]; compound (iv) 2.5 μg/ml): 2.5 µg/mL | MIC (μg/ml) for compound (i) ([2]; compound (iv) 5.0 μg/ml): 1.0 µg/mL | MIC (μg/ml) for compound (i) ([2]; compound (iv) 10 μg/ml): 1.0 µg/mL | MIC (μg/ml) for compound (i) (Klebsiella aerogenes A; compound (iv) 0 μg/ml (alone)): 5.0 µg/mL | MIC (μg/ml) for compound (i) (Klebsiella aerogenes A; compound (iv) 1.0 μg/ml): 0.05 µg/mL | MIC (μg/ml) for compound (i) (Klebsiella aerogenes A; compound (iv) 2.5 μg/ml): 0.05 µg/mL | MIC (μg/ml) for compound (i) (Klebsiella aerogenes A; compound (iv) 5.0 μg/ml): 0.05 µg/mL | MIC (μg/ml) for compound (i) (Klebsiella aerogenes A; compound (iv) 10 μg/ml): 0.05 µg/mL | MIC ([3]; read-out: MIC µg/ml compound (i) alone): > 160 µg/mL | MIC ([3]; read-out: MIC µg/ml compound (i) alone, Geometric mean): > 160 µg/mL | MIC µg/ml compound (i) compound (iii) (µg/ml) 1, Geometric mean ([3]; geometric mean of 11 K. aerogenes strains, with compound (iii) 1 µg/ml, 95% confidence limits (0.49-50.9)): 5.0 µg/mL | MIC µg/ml compound (i) compound (iii) (µg/ml) 2, Geometric mean ([3]; geometric mean of 11 K. aerogenes strains, with compound (iii) 2 µg/ml, 95% confidence limits (0.3-14.4)): 2.1 µg/mL | MIC µg/ml compound (i) compound (iii) (µg/ml) 5, Geometric mean ([3]; geometric mean of 11 K. aerogenes strains, with compound (iii) 5 µg/ml, 95% confidence limits (0.14-4.5)): 0.81 µg/mL | MIC µg/ml compound (i) compound (iii) (µg/ml) 10, Geometric mean ([3]; geometric mean of 11 K. aerogenes strains, with compound (iii) 10 µg/ml, 95% confidence limits (0.04-0.9)): 0.19 µg/mL | MIC µg/ml compound (i) alone ([3]; strain 11793): >160 µg/mL | MIC µg/ml compound (i) compound (iii) (µg/ml) 1 ([3]; strain 11793, with compound (iii) 1 µg/ml): 10 µg/mL | MIC µg/ml compound (i) compound (iii) (µg/ml) 2 ([3]; strain 11793, with compound (iii) 2 µg/ml): 5 µg/mL | MIC µg/ml compound (i) compound (iii) (µg/ml) 5 ([3]; strain 11793, with compound (iii) 5 µg/ml): 2.5 µg/mL | MIC µg/ml compound (i) compound (iii) (µg/ml) 10 ([3]; strain 11793, with compound (iii) 10 µg/ml): 1.25 µg/mL | MIC µg/ml compound (i) alone ([3]; strain 11974): >160 µg/mL
